Test results reported in patent US4956461A, “Desamino-aminopterin and -methotrexate” (priority 1989, dated 1990).
Read-outs that look alike come from different tables or passages of the source.

Experiments:
WI-L2 cells = assay: Growth inhibition of cultured human WI-L2 tumor cells; type: cell-based
carboxypeptidase G1 = assay: Glutamate hydrolysis by carboxypeptidase G1 (HPLC); type: biochemical; details: for disappearance of starting material (glutamate hydrolysis): room temperature, 1M NaOAc, ZnCl2, in less than 15 min
L1210 cells [1] = assay: Reversal test: effect of thymidine and hypoxanthine on growth of L1210 cells in presence of compound; type: cell-based, murine; details: Mus musculus
Experimental: Thymidine (dThd) and hypoxanthine (Hx) were added at concentrations of 10 μM and 100 μM, respectively.

[2] = Stability in solution (base, pH 7.4 buffer, NH4HCO3 eluates); type: physicochemical; details: for time stable in pH 7.4 phosphate buffer / half-life: room temperature, pH 7.4 phosphate buffer; for half-life: read-out: t1/2 (UV changes suggestive of pyrimidine ring cleavage) (converted); for stability of 3% NH4HCO3 eluates: overnight in the refrigerator
Source text: Critically important to the successful purification of the end products of Examples 3 and 4 on diethylamino-ethylcellulose was that the fractions were freeze dried as soon as possible after collection.

L1210 cells [3] = assay: Growth inhibition of cultured murine L1210 tumor cells; type: cell-based
[4] = biological target: T1, dihydrofolate reductase (DHFR) (Homo sapiens, UniProt P00374); assay: Inhibition of purified dihydrofolate reductase (DHFR) from human leukemic lymphoblasts (WI-L2 cells); type: biochemical
T1 construct: endogenous in cells; host or cells: MTX-resistant WI-L2 human leukemic lymphoblasts
T1 sequence (P00374 1-187): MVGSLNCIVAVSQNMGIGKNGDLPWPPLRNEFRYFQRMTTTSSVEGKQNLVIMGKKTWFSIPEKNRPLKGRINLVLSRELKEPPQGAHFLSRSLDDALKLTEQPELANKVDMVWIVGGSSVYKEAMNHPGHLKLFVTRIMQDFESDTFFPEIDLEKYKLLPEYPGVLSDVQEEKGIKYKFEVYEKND
Source text: DHFR was isolated from MTXresistant WIL2 cells and purified by affinity

[5] = system: E. coli dihydrofolate reductase (DHFR), aspartic acid replaced with serine; details: cited from earlier work
[6] = system: DHFR, threonine residue replaced by valine; details: threonine to valine mutant; cited from earlier work
[7] = WIL2, read-out: Cells IC50, WI-L2
[8] = + 10 μM thymidine and 100 μM hypoxanthine, read-out: IC50, + dThd and Hx
[9] = + 10 μM thymidine, read-out: IC50, + dThd
[10] = + 100 μM hypoxanthine, read-out: IC50, + Hx
[11] = read-out: IC50, standard medium
[12] = Mus musculus, L1210, read-out: Cells IC50, L1210
[13] = Mus musculus, L1210, read-out: IC50, growth of cultured tumor cells
[14] = WIL2, read-out: IC50, growth of cultured tumor cells

Nc1nc(N)c2nc(CNc3ccc(C(=O)N[C@@H](CCC(=O)O)C(=O)O)cc3)cnc2n1 [AMT, aminopterin]
IC50 (WI-L2 cells; [7]): 7.1 nM

CN(Cc1cnc2nc(N)nc(N)c2n1)c1ccc(C(=O)N[C@H](CCC(=O)O)C(=O)O)cc1 [D MTX, reference compound]
cleavage by carboxypeptidase G1 (carboxypeptidase G1; identical conditions): resistant

Nc1ncnc2ncc(CNc3ccc(C(=O)N[C@@H](CCC(=O)O)C(=O)O)cc3)nc12 [Example 1, 2-desamino-aminopterin]
IC50 (L1210 cells [1]; [8]): > 100000 nM
IC50 (L1210 cells [1]; [9]): 160 nM
IC50 (L1210 cells [1]; [10]): 260 nM
IC50 (L1210 cells [1]; [11]): 82 nM
disappearance of starting material (glutamate hydrolysis) (carboxypeptidase G1): > 95%
stability in 0.1 N NaOH by HPLC [2]: rapid appearance of new peaks indicating a chemical reaction
time stable in pH 7.4 phosphate buffer [2]: at least 24 h
half-life [2]: ~72 h
IC50 (L1210 cells [3]; [12]): 82 nM
IC50 (L1210 cells [3]; [13]): 30 to 80 nM
IC50 (WI-L2 cells; [7]): 81 nM
IC50 (WI-L2 cells; [14]): 30 to 80 nM

Cc1nc(N)c2nc(CNc3ccc(C(=O)N[C@@H](CCC(=O)O)C(=O)O)cc3)cnc2n1 [Example 2, 2-desamino-2-methyl-aminopterin]
IC50 (L1210 cells [1]; [8]): > 100000 nM
IC50 (L1210 cells [1]; [9]): 130 nM
IC50 (L1210 cells [1]; [10]): 160 nM
IC50 (L1210 cells [1]; [11]): 42 nM
disappearance of starting material (glutamate hydrolysis) (carboxypeptidase G1): > 95%
stability in 0.1 N NaOH by HPLC [2]: rapid appearance of new peaks indicating a chemical reaction
time stable in pH 7.4 phosphate buffer [2]: at least 24 h
half-life [2]: ~72 h
IC50 [4]: > 50000 nM
IC50 (L1210 cells [3]; [12]): 42 nM
IC50 (L1210 cells [3]; [13]): 30 to 80 nM
IC50 (WI-L2 cells; [7]): 28 nM
IC50 (WI-L2 cells; [14]): 30 to 80 nM

CN(Cc1cnc2ncnc(N)c2n1)c1ccc(C(=O)N[C@@H](CCC(=O)O)C(=O)O)cc1 [Example 3]
stability of 3% NH4HCO3 eluates [2]: extensive decomposition occurred
IC50 [4]: 5800 nM

Cc1nc(N)c2nc(CN(C)c3ccc(C(=O)N[C@@H](CCC(=O)O)C(=O)O)cc3)cnc2n1 [Example 4]
stability of 3% NH4HCO3 eluates [2]: extensive decomposition occurred
IC50 ([4]; purified DHFR from MTX-resistant WI-L2 cells, read-out: DHFR IC50): > 20000 nM

CN(Cc1cnc2nc(N)nc(N)c2n1)c1ccc(C(=O)N[C@@H](CCC(=O)O)C(=O)O)cc1 [MTX, methotrexate]
increase in the KD for MTX binding ([5]; aspartic acid to serine mutant of E. coli DHFR, equilibrium dialysis): 3000 fold
decrease in the binding energy ([5]; aspartic acid to serine mutant): 4.4 kcal/mol
decrease in the KD for MTX [6]: 25 fold
IC50 (L1210 cells [3]; Mus musculus, L1210; read-out: Cells IC50, L1210): 9 nM
IC50 (L1210 cells [3]; Mus musculus; one figure stated for WI-L2 and L1210 together; here L1210; read-out: IC50, growth of cultured tumor cells): 10 nM
IC50 (WI-L2 cells; WIL2, one figure stated for WI-L2 and L1210 together, here WI-L2, read-out: IC50, growth of cultured tumor cells): 10 nM
IC50 (WI-L2 cells; [7]): 13 nM
